Assay results reported in patent US20260056204A1, “COMPOSITIONS AND METHODS FOR CHEMOPROTEOMIC REAGENT SYNTHESIS AND APPLICATION” (The Regents of the University of California, priority 2023, published 2026).

Tested on: cysteines in HEK293T cell lysates
Experiment: competitive ABPP workflow with DADPS capture reagents
Assay type: biochemical
Text: To obtain an isotopically enriched DADPS capture reagent, the synthesis and application of heavy L-valine (^13C5 ^15N)— containing reagent NBIV-010 was focused on, as the relatively large +6 Da mass difference is ideal for MS1-based quantification. Further motivating the isotopic reagent design, a +6-mass difference is used in isoTOP-ABPP and isoDTB reagents together with the previously reported heavy and light azido-biotin reagents, which was envisioned could facilitate head-to-head comparisons. Using the same synthetic strategy, heavy reagent NBIV-010 was obtained in 58% yield. […] These reagents in a were further validated in a competitive ABPP workflow. Using HEK293T cell lysates, samples were subjected to either vehicle, DMSO, or 500 μM KB02. Upon labeling with IAA and clicking the samples with either heavy or light DADPS probe (NBIV-010 or NBIV-009, respectively; FIG. 4B) or heavy or light biotin azide, the samples were subjected to SP3 cleanup. After enrichment with either streptavidin resin, for DADPS labeled peptides, or NeutrAvidin resin, for biotin azide labeled peptides, the peptides were cleaved or eluted off resin, respectively, and analyzed by LC-MS/MS. […]

COc1ccc2c(c1)CCCN2C(=O)CCl [KB02]
cysteines with ratios>2 shared by DADPS and biotin azide datasets (high confidence KB02-labeled sites) (500 μM KB02): 163 | cysteines found in peptides with Log2 MS1 extracted ion chromatograph area ratios>2 (cysteines modified by KB02; ligandable cysteines) (500 μM KB02 vs DMSO, heavy/light DADPS probes NBIV-010/NBIV-009, three biological replicates): 404
